Assay results as given in patent US12419875B2, “Use of Axitinib and analogs thereof in preparing blood-brain barrier permeability regulator” (ZHEJIANG UNIVERSITY, priority 2018, dated 2025).

Tests used:
[1] = test system: model of Parkinson's disease; experiment: Movement time within 2 minutes, model of Parkinson's disease; type: in vivo, C57/BL6 mice; details: FIG. 28
Description: After the treatment was accomplished, movement time within 2 minutes (walking, lifting of both forelimbs, washing face, hair grooming and the like) was recorded for each of the test groups (n=5).
After the Axitinib treatment and the levodopa treatment was accomplished, movement time within 2 minutes (walking, lifting of both forelimbs, washing face, hair grooming and the like) was recorded for each of the test groups.

Claudin-5 = experiment: VEGF-stimulated physiological blood-brain barrier Transwell model, Claudin-5 immunofluorescence; type: cell-based; details: bEnd.3 Transwell, exogenous VEGF plus Axitinib 0, 2, 4 μg/mL, 24 hours; FIG. 7
Description: A Transwell model of brain microvascular endothelial cells bEnd.3 simulates a physiological blood-brain barrier. Transwell chambers were stimulated with the added exogenous vascular endothelial growth factor (VEGF), and further with Axitinib at different concentrations (0, 2 μg/mL, 4 μg/mL) synergistically for 24 hours. Thereafter, Immunofluorescence staining was performed on bEnd.3 cells on the Transwell chamber membrane. […] Panel B is the result of fluorescence semi-quantitative analysis of Claudin-5 expression by Image J (n=3).
Brain microvascular endothelial cells bEnd.3 were used as model cells of a blood-brain barrier. 0.5 mL suspension of well-grown bEnd.3 cells was inoculated in the chamber of a 12-well Transwell plate with a pore size of 0.4 μm at a cell density of 1×10^5/well. 1.5 mL of fresh culture medium was supplemented in the outer chamber. The culture medium was refreshed every other day. Incubation was continued for 15 days at 37° C. and 5% CO2. When the cell transmembrane resistance value was greater than 150 ohm·cm^2 (Ω·cm^2), a cell model of physiological blood-brain barrier was obtained for evaluation.
The physiological blood-brain barrier as constructed by Method 1 in the Example 1 was used as a model. Exogenous vascular endothelial cell growth factor (VEGF) and Axitinib at different concentrations were added to the Transwell chamber. […]

U87-luci glioma = experiment: Glioma growth (bioluminescent imaging) and life cycle, in situ glioma model; type: in vivo, BABL/c nude mice; details: 10 mg/kg tail vein
Description: Administration was performed for 7 consecutive days. Growth of glioma was monitored by a bioluminescent imaging technology. […] A physiological saline group was used as control.
Male BABL/c nude mice (20±2 g) were used as the model animals. U87-luci glioma cells expressing luciferase were inoculated in the striatum area of nude mice at a concentration of 5×10^5 cells/5 μL by means of a brain stereotaxic instrument (inoculation coordinates, 0.8 mm on the anterior side of bregma, 2 mm on the right side, and 3 mm in depth), to construct an in situ glioma model. […] Administration was performed for 7 consecutive days. Growth of glioma was monitored by a bioluminescent imaging technology.

U87 MG glioma cells = experiment: Cell survival rate by tetrazolium blue colorimetry, U87 MG cells; type: cell-based; details: U87MG cells, 10 μM (therapeutic dose); FIGS. 13 and 14
Description: FIG. 13: Evaluation of cell survival rate in a Transwell model. A Transwell model of co-incubation of brain microvascular endothelial cells bEnd.3 and glioma cells U87 MG simulates a pathological blood-brain barrier. Axitinib (10 μM) and an Axitinib analog of phosphatidylinositol kinase (PI3K) inhibitor LY294002 (10 μM) were added into the Transwell chamber. After 24 hours, the survival rate of bEnd.3 cells in the Transwell chamber (Panel A) and U87 MG cells in the Transwell outer chamber (Panel B) were detected by tetrazolium blue colorimetry (n=3).
FIG. 14: Evaluation of Cytotoxicity for Axitinib and an analog thereof. […] Cell survival rate was detected by tetrazolium blue colorimetry. […]
The physiological blood-brain barrier and the pathological blood-brain barrier as constructed in Method 1 and Method 2 in the Example 1 were used as models, respectively. […] Absorbance at 570 nm was measured with a microplate reader. The survival rate of cells was calculated according to the following formula: Survival rate of cells (%)=(absorbance value of a test group/absorbance value of a control group)×100%
In addition, bEnd.3 cells and U87 MG glioma cells were used as model cells to evaluate the cytotoxicity of Axitinib and an Axitinib analog of phosphatidylinositol kinase (PI3K) inhibitor LY294002 with the tetrazolium blue colorimetric method. […] Absorbance at 570 nm was measured with a microplate reader.

Claudin-5/Occludin = experiment: Tumor cell culture co-incubated with bEnd.3 cells (U87MG removed), Claudin-5/Occludin immunofluorescence; type: cell-based; details: tumor cell culture kept, 10 μM, 24 hours, FIG. 17
Description: FIG. 17: Co-incubation of a tumor cell culture and bEnd.3 cells in vitro, and immunofluorescent staining of a blood-brain barrier tight junction protein of Claudin-5/Occludin. A Transwell model of co-incubation of brain microvascular endothelial cells bEnd.3 and glioma cells U87 MG simulates a pathological blood-brain barrier. Once a pathological blood-brain barrier model was formed, U87MG glioma cells in the outer chamber of Transwell were removed, while the tumor cell cultures were remained. Axitinib (10 μM) and an Axitinib analog of phosphatidylinositol kinase (PI3K) inhibitor LY294002 (10 μM) were added to the Transwell chamber. After 24 hours, immunofluorescent staining was performed on bEnd.3 cells on the Transwell chamber membrane. A physiological blood-brain barrier simulated by a Transwell model of brain microvascular endothelial cell bEnd.3 was used as a positive control.
The physiological blood-brain barrier and the pathological blood-brain barrier as constructed in Method 1 and Method 2 in the Example 1 were used as models, respectively. Once a pathological blood-brain barrier model was formed, U87MG glioma cells in the outer chamber of Transwell were removed, while the tumor cell cultures were remained. Axitinib (10 μM) and an Axitinib analog of phosphatidylinositol kinase (PI3K) inhibitor LY294002 (10 μM) were added to the Transwell chamber. […]

[2] = test system: pathological blood-brain barrier (bEnd.3 cells co-incubated with U87 MG glioma cells); experiment: Pathological blood-brain barrier Transwell model (bEnd.3 co-incubated with U87 MG), cell transmembrane resistance; type: cell-based; details: 24 hours
Description: A Transwell model of co-incubation of brain microvascular endothelial cells bEnd.3 and glioma cells U87 MG simulates a pathological blood-brain barrier. Axitinib at different concentrations (0, 0.05 μg/mL, 0.1 μg/mL, 0.5 g/mL, 1 μg/mL, 4 μg/mL, 5 μg/mL, 10 μg/mL, 20 μg/mL) was allowed to act on the Transwell chamber. After 24 hours, cell transmembrane resistances were detected by a cell resistance meter. A physiological blood-brain barrier simulated by a Transwell model of brain microvascular endothelial cell bEnd.3 was used as a positive control (n=5).
A Transwell model of co-incubation of brain microvascular endothelial cells bEnd.3 and glioma cells U87 MG simulates a pathological blood-brain barrier. Axitinib (10 μM), an Axitinib analog of phosphatidylinositol kinase (PI3K) inhibitor LY294002 (10 μM), protein kinase B (AKT) agonist SC79 (10 μM) were added into the Transwell chamber. After 24 hours, cell transmembrane resistance was detected by a cell resistance meter. A physiological blood-brain barrier simulated by a Transwell model of brain microvascular endothelial cell bEnd.3 was used as a positive control (n=5).
U87 MG glioma cells were used as brain tumor model cells. 1.5 mL suspension of well-grown U87 MG cell suspension was inoculated in a 12-well plate at a cell density of 2×10^5/well. Incubation was continued at 37° C. and 5% CO2 until the cells adhere. Then, the physiological blood-brain barrier as constructed by Method 1 in the Example 1, i.e., the Transwell chamber with bEnd.3 cells grown, was transferred to the 12-well plate with U87 MG cells grown. Co-culture was further continued for 24 hours to obtain a cell model of pathological blood-brain barrier.
The physiological blood-brain barrier as constructed by Method 2 in the Example 1 was used as a model. Axitinib at different concentrations was added to the Transwell chamber for stimulation.
The physiological blood-brain barrier and the pathological blood-brain barrier as constructed in Method 1 and Method 2 in the Example 1 were used as models, respectively. Axitinib (10 μM), an Axitinib analog of phosphatidylinositol kinase (PI3K) inhibitor LY294002 (10 μM), protein kinase B (AKT) agonist SC79 (10 μM) were added into the Transwell chamber of the pathological blood-brain barrier model as constructed in Method 2 in the Example 1. After 24 hours, the Transwell chamber with bEnd.3 cells grown was transferred to another 12-well plate, washed with PBS for 3 times, and 0.5 mL HBSS nutrient solution was added to the chamber, and the outer chamber was supplemented with 1.5 mL HBSS nutrient solution. The cells were equilibrated at 37° C. for 15 minutes. Cell transmembrane resistance was detected by a cell resistance meter.

Structure (SMILES): CNC(=O)c1ccccc1Sc1ccc2c(/C=C/c3ccccn3)n[nH]c2c1 [Axitinib, N-methyl-2-((3-((1E)-2-(pyridine-2-yl)ethenyl)-1H-indazol-6-yl)sulfanyl)benzamide]
- Dyskinesia (movement time), Axitinib compared with levodopa ([1]; Axitinib 10 mg/kg 7 days vs levodopa 20 mg/kg 10 days): no difference in their efficacy
- Dyskinesia (movement time within 2 minutes) ([1]; Axitinib 10 mg/kg 7 days, levodopa 20 mg/kg 10 days, vs Parkinson's control): significantly alleviated
- Expression of tight junction protein Claudin-5 (Claudin-5): reduce the degree to which Claudin-5 is down-regulated in a dose-dependent manner
- Growth of glioma in situ (U87-luci glioma; 7 consecutive days from Day 4, vs saline control, FIG. 20): significantly inhibited
- Life cycle of the animal (U87-luci glioma; 7 consecutive days, FIG. 21): significantly prolonged
- Cytotoxicity (U87 MG glioma cells): do not produce significant cytotoxicity
- Expression of tight junction protein Claudin-5/Occludin (Claudin-5/Occludin): the degree to which pathological blood-brain barrier tight junction protein of Claudin-5/Occludin is down-regulated is reduced
- Cell transmembrane resistance (blood-brain barrier function) ([2]; 10 μM, FIG. 10): promote recovery of a blood-brain barrier function from a pathologically impaired state to a state close to a physiological barrier
- Concentration at which blood-brain barrier permeability is effectively reduced (cell transmembrane resistance) ([2]; FIG. 9): 0.5˜20 μg/mL
- Concentration at which blood-brain barrier permeability is effectively reduced (cell transmembrane resistance) ([2]; FIG. 9, same range in μM): 1.29 to 51.75 µM
- Cell transmembrane resistance, dependence on concentration ([2]; Axitinib 0-20 μg/mL, FIG. 9): dose-dependent
